The values below come from publication PMC13534789, “Molecular Glue Degraders Enhance CAPRIN1‐Dependent Lysosomal Degradation of APP and Reduce Amyloid β in Alzheimer's Disease” (Advanced Science, 2026).

One series addresses T1, APP695‐HiBiT (Homo sapiens, UniProt P05067+Q14444).
T1 construct: expressed in transfected cells; host or cells: HEK293, lentiviral transduction, hygromycin-selected single clones (#3, #9)
Kind of series: APP695-HiBiT luminescence assay in HEK293 cells. In kind it is cell-based. From the text:
We previously reported CAPRIN1‐targeted molecular degraders that bind to CAPRIN1 and F‐box protein 42 (FBXO42), promoting FBXO42‐mediated proteasomal degradation of small ubiquitin‐related modifier 1 (SUMO1), an oncoprotein, in human cancers. CAPRIN1 is a neuronal RNA‐binding protein involved in neuronal development and neurodegeneration. CAPRIN1 was reported to be a binding partner of APP [28]. Therefore, we thought to investigate whether CAPRIN1‐targeted degraders could promote APP degradation in APP‐expressing cell models. To establish screening models, we tagged wild‐type APP695 (APP695), the predominant neuronal isoform, with the small HiBiT tag (APP695‐HiBiT) and expressed APP695‐HiBiT in HEK293 cells. Cell lysates were analyzed using a luminescence‐based assay of HiBiT‐tagged protein [30], identifying clone #3 and #9 with robust APP695‐HiBiT expression (Figure S1A). Western blotting and ELISA confirmed intracellular expression of APP695 and extracellular release of Aβ42 in these clones (Figure S1B,C).
HEK293 cells were purchased from the American Type Culture Collection (ATCC). […] Once expanded, clones were analyzed by ELISA for amyloid beta 42 (Aβ42), western blot for APP expression, and Hibit‐lytic assay (Promega). […]

A short description of a further series: Kinetic solubility assay. In kind it is physicochemical. The settings on record: for solubility at 24 h: aqueous buffer, kinetic from dmso stock, phosphate buffer pH 7.4, 24 h, room temperature, LC-MS, read-out: Solubility PBS. The protocol:
10 µL of 10 mM DMSO stock solution of test and control compounds was added to 990 µL phosphate buffer with pH 7.4. […] Samples were centrifuged, and the supernatant was transferred into a filter plate. Then, the filtrates were quantified by an LC‐MS system to get solubility results.

Another series deals with T2, CAPRIN1 (Homo sapiens, UniProt Q14444).
T2 construct: 10xHis (followed by a 3C site) (N); made in house; host or cells: Tni (Hi5) insect cells, baculovirus
T2 sequence (Q14444 whole entry): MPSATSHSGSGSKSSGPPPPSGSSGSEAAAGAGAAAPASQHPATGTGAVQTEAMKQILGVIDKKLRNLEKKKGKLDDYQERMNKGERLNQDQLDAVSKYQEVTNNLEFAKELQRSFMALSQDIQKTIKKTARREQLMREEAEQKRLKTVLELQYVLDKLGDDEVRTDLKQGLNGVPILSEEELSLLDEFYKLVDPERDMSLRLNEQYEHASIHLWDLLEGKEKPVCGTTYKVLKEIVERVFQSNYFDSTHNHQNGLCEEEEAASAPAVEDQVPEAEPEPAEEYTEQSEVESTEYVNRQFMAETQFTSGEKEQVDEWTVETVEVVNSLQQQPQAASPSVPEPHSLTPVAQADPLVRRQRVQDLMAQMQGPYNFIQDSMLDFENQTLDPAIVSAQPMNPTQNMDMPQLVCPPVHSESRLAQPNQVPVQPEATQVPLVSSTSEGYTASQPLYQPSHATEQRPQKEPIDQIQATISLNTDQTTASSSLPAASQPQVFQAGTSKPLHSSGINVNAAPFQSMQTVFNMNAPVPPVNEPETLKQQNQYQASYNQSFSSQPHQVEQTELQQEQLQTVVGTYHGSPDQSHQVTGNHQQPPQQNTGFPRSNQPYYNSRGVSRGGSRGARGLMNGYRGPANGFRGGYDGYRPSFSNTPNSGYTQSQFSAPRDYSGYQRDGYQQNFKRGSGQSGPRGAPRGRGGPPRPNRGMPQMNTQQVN
Kind of series: SPR, compound onto CAPRIN1 alone. The settings on record: immobilized CAPRIN1. The class given is binding. The protocol: SPR experiments were conducted to investigate the interaction between APP695 and CAPRIN1 proteins using a Biacore T200 instrument (Cytiva). Both proteins were expressed in Tni (Hi5) insect cells and purified to homogeneity via tandem affinity and ion‐exchange. Protein purity and integrity were confirmed by SDS‐PAGE and size‐exclusion chromatography prior to analysis. All experiments were performed in a running buffer consisting of 50 mM HEPES at pH7.0, 100 mM KCl, 10% glycerol, and 0.01% (v/v) Tween‐20 supplemented with 0.1% (w/v) Sarkosyl (pH 7.4). APP695 was serially diluted in running buffer to final concentrations of 15, 5, 1, and 0.3 µM. Chip Preparation: A CM5 sensor chip (Cytiva) was activated using a 1:1 (v/v) mixture of 0.1 M N‐hydroxysuccinimide (NHS) and 0.1 M N‐ethyl‐N′‐(3‐dimethylaminopropyl) carbodiimide (EDC) to generate reactive ester groups. CAPRIN1 was diluted to 50 µg/mL in 10 mM Hepes‐KOH buffer (pH 6.0) and immobilized on the chip surface via standard amine coupling to achieve immobilization. Unreacted sites were blocked with 1 M ethanolamine‐HCl (pH 8.5). A reference flow cell was prepared similarly but without protein immobilization to control for non‐specific binding and bulk refractive index changes. Binding assay: Binding interactions were measured at 25°C with a flow rate of 30 µL/min. […]

≈ marks a conversion by molar mass, not a printed value.

T1 sequence (P05067 18-695 isoform P05067-4 limits assumed): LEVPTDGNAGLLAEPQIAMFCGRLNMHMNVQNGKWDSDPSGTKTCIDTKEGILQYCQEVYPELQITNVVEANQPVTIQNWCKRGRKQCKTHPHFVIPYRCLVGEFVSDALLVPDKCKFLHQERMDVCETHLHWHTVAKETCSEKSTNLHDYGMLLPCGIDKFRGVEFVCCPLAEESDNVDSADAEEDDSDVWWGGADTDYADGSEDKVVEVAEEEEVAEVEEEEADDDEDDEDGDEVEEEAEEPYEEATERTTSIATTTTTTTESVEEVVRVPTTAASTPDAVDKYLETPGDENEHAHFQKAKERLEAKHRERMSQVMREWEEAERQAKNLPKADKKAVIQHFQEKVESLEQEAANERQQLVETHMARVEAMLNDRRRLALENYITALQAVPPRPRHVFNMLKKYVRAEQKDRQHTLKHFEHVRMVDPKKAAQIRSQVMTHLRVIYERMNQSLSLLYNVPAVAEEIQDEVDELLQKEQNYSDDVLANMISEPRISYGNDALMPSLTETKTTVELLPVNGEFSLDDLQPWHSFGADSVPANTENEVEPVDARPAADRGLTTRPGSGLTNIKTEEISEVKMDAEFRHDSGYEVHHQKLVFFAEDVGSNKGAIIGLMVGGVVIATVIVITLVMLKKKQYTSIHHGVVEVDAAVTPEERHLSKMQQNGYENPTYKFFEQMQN
T1 sequence (Q14444 2-709 limits assumed): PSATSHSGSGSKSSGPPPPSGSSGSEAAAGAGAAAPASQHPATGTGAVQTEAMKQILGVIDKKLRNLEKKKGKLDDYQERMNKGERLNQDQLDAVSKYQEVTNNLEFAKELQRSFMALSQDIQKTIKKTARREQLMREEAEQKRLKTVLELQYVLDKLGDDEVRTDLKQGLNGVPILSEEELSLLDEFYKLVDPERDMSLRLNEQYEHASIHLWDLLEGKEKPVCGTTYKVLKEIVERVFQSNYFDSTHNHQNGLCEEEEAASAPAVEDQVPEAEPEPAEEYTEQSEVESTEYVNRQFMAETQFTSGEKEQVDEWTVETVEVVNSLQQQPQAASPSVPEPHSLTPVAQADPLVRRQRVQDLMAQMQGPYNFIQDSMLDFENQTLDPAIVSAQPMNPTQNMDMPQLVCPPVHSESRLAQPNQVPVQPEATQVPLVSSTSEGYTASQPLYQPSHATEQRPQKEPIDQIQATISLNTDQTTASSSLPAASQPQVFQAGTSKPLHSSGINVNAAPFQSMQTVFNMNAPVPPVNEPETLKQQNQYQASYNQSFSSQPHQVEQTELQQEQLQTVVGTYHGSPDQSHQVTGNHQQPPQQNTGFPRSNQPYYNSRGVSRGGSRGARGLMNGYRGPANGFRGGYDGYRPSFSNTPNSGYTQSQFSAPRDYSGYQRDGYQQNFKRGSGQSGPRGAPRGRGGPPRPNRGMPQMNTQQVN

For the molecule `N#Cc1cccc(NC(=O)Nc2nc3ccc(C(=O)N4CCOCC4)cc3s2)c1` [compound 0043], the “APP695-HiBiT levels in library screen” value at APP695‐HiBiT (10 µM, 24 h, APP695-HiBiT clones, vs DMSO) is listed as “more effective”. Also, in “Kinetic solubility assay”, the “Aqueous solubility by LC-MS, in words” value is reported as “poor aqueous solubility” and the solubility at 24 h was 0.06 µg/mL (≈ 0.147 µM). The “Interaction with CAPRIN1 alone” value at CAPRIN1 is “no noticeable interaction”.
In the case of `COc1cccc(NC(=O)Nc2nc3ccc(C(=O)N4CCOCC4)cc3s2)c1` [compound 0152], the “APP695-HiBiT levels, dose and time course” value on APP695‐HiBiT (HEK-APP695-HiBiT cells) was “dose‐ and time‐dependent reduction in APP695‐HiBiT levels”. In the series “Kinetic solubility assay”, the “Aqueous solubility by LC-MS, in words” value was “significantly improved aqueous solubility” and the solubility at 24 h is 0.4 µg/mL (≈ 0.97 µM). For the same molecule, on CAPRIN1, the “Interaction with CAPRIN1 alone” value was “no noticeable interaction”.

The solubility is the dissolved amount per volume that the medium holds.
